Results reported in PMC10888562 (International Journal of Molecular Sciences, 2024).
Where two headings read alike, the source gives them in different places.

Key:
[1] = test system: multiple human cell lines; design: method as in PMID 36142383, PMID 37173934, PMID 36296713; settings: average over all cell lines; cited from earlier work
MCF-7 breast [2] = assay: MTT cell viability assay (GI50), MCF-7; format: cell-based, human; settings: for SCI: GI50 (MCF10A)/GI50 (MCF-7); for GI50: MCF-7 breast, MTT
HT29 colon = test system: HT29 colon; design: method as in PMID 36142383, PMID 37173934, PMID 36296713; settings: cited from earlier work
MCF-7 breast [3] = test system: MCF-7 breast; design: method as in PMID 36142383, PMID 37173934, PMID 36296713; settings: cited from earlier work
H460 lung = test system: H460 lung; design: method as in PMID 36142383, PMID 37173934, PMID 36296713; settings: cited from earlier work
[4] = test system: histone deacetylase (HDAC); assay: Fluorometric HDAC activity assay on extracts of treated HT29 cells; format: cell-based, human; settings: HT29 colon cells treated 72 h at GI50 concentration; lower RFU = decline in HDAC activity; HT29 extract control 5154 ± 40
Protocol: All values are expressed as RFU.
To study the HDAC activity in HT29 treated cells, a Fluorometric HDAC Activity Assay Kit ab156064 (Abcam, Cambridge, MA, USA) was used and all sample preparations were made based on the manufacturer’s protocol. A total of 10^6 cells/mL of HT29 cells were seeded in DMEM with serum deprivation for 18 h to synchronise the cells. […] Cells were then washed with cold PBS and resuspended in lysis buffer (10 mM Tris HCl (pH 7.5), 10 mM NaCl, 15 mM MgCl2, 250 mM sucrose, 0.5% NP-40 and 0.1 mM EGTA) and lysed on ice for 20 min. Cells were centrifuged through 4 mL of sucrose cushion (30% sucrose, 10mM Tris HCl (pH 7.5), 10 mM NaCl and 3mM MgCl2) at 1300× g for 10 min at 4 °C. Supernatant was discarded and the pellet was washed and resuspended in extraction buffer (50 mM HEPES-KOH (pH 7.5), 420 mM NaCl, 0.5 mM EDTA 2Na, 0.1 mM EGTA and 10% glycerol) and then sonicated for 30 s. Nuclei were lysed for 30 min on ice and centrifuged at 20,000× g for 30 min. The supernatant was collected, and the samples were prepared for the fluorometric assay according to the manufacturer’s protocol (Histone Deacetylase (HDAC) Activity Assay Fluorometric Kit ab156064, Abcam). The changes in the relative fluorescence intensity (expressed as RFU) were recorded each minute over 60 min using the Glo-Max®-Multimode microplate reader (Promega Corporation, Alexandra, VIC, Australia) at an excitation/emission of 355/460 nm.

[5] = test system: cisplatin-resistant ADDP ovarian variant; design: method as in PMID 36142383, PMID 37173934, PMID 36296713; settings: cited from earlier work
A2780 ovarian [6] = test system: A2780 ovarian; design: method as in PMID 36142383, PMID 37173934, PMID 36296713; settings: cited from earlier work
A431 skin = test system: A431 skin; design: method as in PMID 36142383, PMID 37173934, PMID 36296713; settings: cited from earlier work
SJ-G2 glioblastoma = test system: SJ-G2 glioblastoma; design: method as in PMID 36142383, PMID 37173934, PMID 36296713; settings: cited from earlier work
Du145 prostate = test system: Du145 prostate; design: method as in PMID 36142383, PMID 37173934, PMID 36296713; settings: cited from earlier work
MIA pancreas = test system: MIA pancreas; design: method as in PMID 36142383, PMID 37173934, PMID 36296713; settings: cited from earlier work
BE2-C neuroblastoma = test system: BE2-C neuroblastoma; design: method as in PMID 36142383, PMID 37173934, PMID 36296713; settings: cited from earlier work
A2780 ovarian [7] = assay: MTT cell viability assay (GI50), A2780; format: cell-based, human; settings: for SCI: GI50 (MCF10A)/GI50 (A2780); for GI50: A2780 ovarian, MTT
U87 glioblastoma = test system: U87 glioblastoma; design: method as in PMID 36142383, PMID 37173934, PMID 36296713; settings: cited from earlier work
[8] = test system: non-tumour-derived MCF10A breast line; design: method as in PMID 36142383, PMID 37173934, PMID 36296713; settings: cited from earlier work
[9] = Reduction with ascorbic acid (AsA) followed by 1H-NMR and 1D-195Pt-NMR; format: physicochemical; settings: PBS, DMSO-d6, 37 °C; for Approximate Reduction Time Points T50%: time at which 50% of reduction occurs; for Approximate Reduction Time Points T100%: time at which 100% of reduction occurs
Protocol: The biological reductant selected for this study is AsA. Briefly, sequential ^1H-NMR experiments were performed for 1 h at 37 °C, proceeded by 1D-^195Pt-NMR at 400 and −2800 ppm (30 min per region). It is noteworthy that the purity of each complex was examined prior the reduction experiments ensuring that no traces of platinum(II) species were evident in the samples used. All complexes were dissolved in PBS and DMSO-d6, without the reductant. Preliminary 1D-^195Pt-NMR measurements were conducted at 37 °C at 400 and −2800 ppm. […] Upon treatment of the platinum(IV) complexes with AsA, there was considerable reduction observed in the ^1H-NMR and 1D-^195Pt-NMR spectra acquired (Figures S31–S36). Notable changes in chemical multiplicity were recorded in the ^1H-NMR reduction spectra of P-5B3A, 5-5B3A and 56-5B3A (Figures S31, S33 and S35), especially along the aromatic region. The estimated reduction time points for P-5B3A, 5-5B3A and 56-5B3A are also outlined in Table 3.
The reduction behaviour of P-5B3A, 5-5B3A and 56-5B3A was investigated using ^1H-NMR and 1D-^195Pt-NMR spectroscopy, using previously established methods.

Solubility in d.i.H2O = format: physicochemical; settings: room temperature
Protocol: The solubility of P-5B3A, 5-5B3A and 56-5B3A was tested in d.i.H2O at room temperature. Small aliquots of d.i.H2O were titrated into an Eppendorf tube containing 1 mg of each complex until full dissolution. For every titration, each sample solution was vortexed and sonicated.

[10] = test system: non-tumour-derived MCF10A breast line; settings: for GI50: MCF10A non-tumour-derived breast, MTT

Compound: N.N.[Cl][Pt][Cl] [Cisplatin, cis-diammineplatinum(II) dichloride]
- GI50 [1]: 5840 ± 610 nM
- SCI (MCF-7 breast [2]): 0.80
- GI50 (HT29 colon): 11300 nM
- GI50 (MCF-7 breast [3]): 6500 ± 800 nM
- GI50 (H460 lung): 900 ± 200 nM
- HDAC Inhibition at 72 h [4]: 3698 ± 59 RFU
- GI50 [5]: 28000 nM
- GI50 (A2780 ovarian [6]): 1000 ± 100 nM
- GI50 (A431 skin): 2400 ± 300 nM
- GI50 (SJ-G2 glioblastoma): 400 ± 100 nM
- GI50 (Du145 prostate): 1200 ± 100 nM
- GI50 (MIA pancreas): 7500 ± 1300 nM
- GI50 (BE2-C neuroblastoma): 1900 ± 200 nM
- SCI (A2780 ovarian [7]): 5.20
- GI50 (U87 glioblastoma): 3800 ± 1100 nM
- GI50 [8]: 5200 ± 520 nM

Compound: [Pt^IV(phen)(SS-DACH)(5B3A)(OH)]^2+ [P-5B3A]
- Approximate Reduction Time Points T50% [9]: 10 to 15 min
- Approximate Reduction Time Points T100% [9]: 60 min
- SCI (MCF-7 breast [2]): 0.05
- GI50 (MCF-7 breast [2]): 5400 ± 2800 nM
- Solubility (Solubility in d.i.H2O): 7000 µg/mL
- HDAC Inhibition at 72 h [4]: 3620 ± 35 RFU
- fold difference in cytotoxicity versus PHENSS [10]: 0.9 fold
- GI50 [10]: 280 ± 39 nM
- GI50 (A2780 ovarian [7]): 470 ± 18 nM
- SCI (A2780 ovarian [7]): 0.60

Compound: [Pt^IV(5-Mephen)(SS-DACH)(5B3A)(OH)]^2+ [5-5B3A]
- Approximate Reduction Time Points T50% [9]: 5 to 10 min
- Approximate Reduction Time Points T100% [9]: 30 min
- SCI (MCF-7 breast [2]): 0.10
- GI50 (MCF-7 breast [2]): 200 ± 21 nM
- Solubility (Solubility in d.i.H2O): 6000 µg/mL
- HDAC Inhibition at 72 h [4]: 2791 ± 72 RFU
- GI50 [10]: 19 ± 1.5 nM
- GI50 (A2780 ovarian [7]): 42 ± 4 nM
- SCI (A2780 ovarian [7]): 0.45

Compound: [Pt^IV(5,6-Me2phen)(SS-DACH)(5B3A)(OH)]^2+ [56-5B3A]
- Approximate Reduction Time Points T50% [9]: 0 to 5 min
- Approximate Reduction Time Points T100% [9]: 10 min
- SCI (MCF-7 breast [2]): 0.05
- GI50 (MCF-7 breast [2]): 68 ± 10 nM
- Solubility (Solubility in d.i.H2O): 4000 µg/mL
- HDAC Inhibition at 72 h [4]: 2550 ± 57 RFU
- GI50 [10]: 3.3 ± 0.9 nM
- GI50 (A2780 ovarian [7]): 18 ± 6.1 nM
- SCI (A2780 ovarian [7]): 0.18
